Values of other authors as cited in patent US6929797B2, “Targeted therapeutic delivery of vitamin D compounds” (Bone Care International, Inc., priority 1997, dated 2005).
Read-outs that look alike come from different tables or passages of the source.

Legend:
[1] = 0.5 μg/day, postmenopausal women
[2] = not given; remark: listed apart in the source

## C=C1/C(=C\C=C2/CCC[C@]3(C)[C@@H]([C@H](C)CCCC(C)(C)O)CC[C@@H]23)C[C@@H](O)C[C@@H]1O [1α,25-dihydroxyvitamin D3]
[1]
  intestinal calcium absorption and calcium balance: improved
Above 0.5 μg/day
  toxicity (hypercalcemia and hypercalciuria): frequently resulted in toxicity
[2]; dosage levels below 0.5 μg/day
  effects on bone mass or mineral content: no effects

## C=C1/C(=C\C=C2/CCC[C@]3(C)[C@@H]([C@H](C)CCCC(C)C)CC[C@@H]23)C[C@@H](O)C[C@@H]1O [1α-hydroxyvitamin D3]
1 μg/day
  patients in whom toxicity occurs: approximately 20%
2 μg/day
  patients in whom toxicity occurs: approximately 67%
[2]; 1 μg/day, Japan, population with low calcium intake
  efficacy (bone mass or bone mineral content): efficacy is found
[2]; Two μg/day, patients exhibiting senile osteoporosis
  bone mass: efficacy in increasing bone mass
